{
  "source": "patent US10188610B2",
  "about": "“Prolonged-release diphenidol composition” (INVEKRA, S.A.P.I. DE C.V., priority 2013, dated 2019)",
  "origin": "cited, not measured here",
  "conditions": "after oral administration",
  "note": "Structures can show the parent of a compound that is named as a salt.",
  "data": [
    {"smiles": "OC(CCCN1CCCCC1)(c1ccccc1)c1ccccc1", "note": "[Diphenidol hydrochloride, α,α-diphenil-1-piperidinebutanol]", "values": [
      {"measurement": "half life", "value": 4, "unit": "h"}
    ]}
  ]
}
